# Test results as given in patent US20120195986A1, “PREVENTING OR TREATING PERIODONTAL DISEASES BY HERBAL EXTRACT” (priority 2009, published 2012).
# System: male ICR mice
# Experiment: In vivo anti-inflammatory activity (croton oil-induced ear inflammation, ear thickness)
# Parameters: species or system mouse
# Conditions: 20 mg/kg orally (positive control)
# Description: In order to evaluate in vivo anti-inflammatory activity of the combined extract prepared in Preparation Examples 4 to 7 showing improved osteoblast proliferation and anti-inflammatory activity in the above Experimental Examples 1 and 2 and single extract in Examples 1.1 and 1.2, Hee et. al.'s method was used for the evaluation (Kor J. Pharmacogn. 25(4), 363˜367, 1994, Arch. Pharm. Res. 16(1), 18˜24, 1993.), and the result is shown in Table 2. In Table 2, 20 mg/kg was administered for positive control (Indomethacin, Sigma) and 200 mg/kg was administered for the test groups orally. Dose dependent anti-inflammatory activity was evaluated for the Example 5 with the highest activity, and the result is shown in Table 3. The thickness of ear was measured by using a thickness gauge (model H, Peacock, Japan) for male ICR mice (6 weeks, Samtaco Biokorea) before treating with the formulation. The control and test drug was administered orally, and the inflammation was induced 1 hour after the administration by smearing 10 uL of inflammation inducing material (2.5% croton oil, sigma) dissolved in acetone on the inner and outer ear after immobilizing the mice. In 5 hours, the mice were sacrificed by cervical dislocation and the thickness of the right ear was measured.
smiles,measurement,value
COc1ccc2c(c1)c(CC(=O)O)c(C)n2C(=O)c1ccc(Cl)cc1 [Indomethacin],Anti-inflammatory activity (%),50%
